For one assay, the system named is Protein Kinase B (PKB). As to the kind of experiment: Insulin-induced HA-PKB activation (S473 phosphorylation, in vitro H2B phosphorylation). It is filed as cell-based, human. To be noted: 100 mM 2-deoxyglucose, 20 nM rapamycin or 100 nM wortmannin. On the procedure:
(§1) Transiently-transfected, HA-tagged PKB activation was measured in vitro using histone 2B (H2B) as substrate (Franke et al., 1995, Cell 81, 727) after immunoprecipitation from serum-starved cells extracted directly or after insulin stimulation with or without the addition of 100 mM 2-deoxyglucose, 20 nM rapamycin or 100 nM wortmannin. Rapamycin and wortmannin were added to serum-starved cells 30 min prior to insulin-stimulation. HA-PKB expression and S473 phosphorylation were measured essentially as described above. HA-MAPK kinase activity toward using myelin basic protein (MBP) was measured from serum-starved cells extracted directly or after 100 nM TPA stimulation in the presence or absence of 20 nM rapamycin or 100 mM 2-deoxyglucose for 30 min (N. Pullen et al., 1998).

Assay [1] concerns 4E-BP1 (S65 phosphorylation; mTOR-mediated site). It is filed as cell-based, human. As for the experimental part:
Transfections were carried out essentially as described by Manteuffel et al., 1997, Mol Cell. Biol. 17, 5426 with the 4EBP-1 construct described therein. The expression and phosphorylation of transiently-transfected HA-4E-BP1 was measured using a polyclonal anti-HA antibody and phosphospecific antibody against S65, respectively, essentially as described above (Pullen et al., 1998). The anti-HA antibody was obtained from a commercial source (Santa Cruz Biotechnology, Inc). The mTOR-mediated phosphorylation site in 4E-BP1 is S65.

Assay [2] concerns Mitogen-Activated Protein Kinase (MAPK). As to the kind of experiment: TPA-induced HA-MAPK activation (MBP phosphorylation). To be noted: 100 nM TPA, 100 mM 2-deoxyglucose, 30 min. It counts as cell-based, human. On the procedure: as §1
The next assay deals with GST-ΔC-S6K1. As to the kind of experiment: Insulin-induced activation of GST-ΔC-S6K1 (rapamycin-resistant allele) in transfected HEK293 cells. It is filed as cell-based, human. To be noted: 20 nM rapamycin, 100 nM wortmannin, or 2-deoxyglucose 20, 40 and 100 mM. An excerpt:
(§2) Rapamycin resistance was conferred by fusing glutathione-S-transferase to the NH2-terminus of S6K1 and truncating the COOH-terminus, creating a construct termed GST-ΔC-S6K1 (Pullen et al.,1 998). For the construction of the GST-ΔC-S6K1 (also known as GST-ΔC104-S6K1) and D3E, K100Q-S6K1-GST plasmids, similar cloning strategies were used. S6K1-GST or GST-ΔC-S6K1 from transiently-transfected, serum-starved HEK293 cells were extracted directly or after insulin stimulation with or without the addition of 20 nM rapamycin or 100 nM wortmannin. Kinase activities, expression levels and T389 phosphorylation were carried out essentially as described above. Expression and activity of S6K1-GST or GST-ΔC-S6K1 were measured after insulin stimulation alone or with increasing amounts of 2-deoxyglucose (20, 40 and 100 mM) essentially as described above. Mock-transfected HEK293 cells were treated using the same conditions and extracted for ATP analysis

The test system of the next assay is S6K1-GST. As to the kind of experiment: Insulin-induced activation of S6K1-GST (rapamycin sensitive) in transfected HEK293 cells. To be noted: 20 nM rapamycin, 100 nM wortmannin, or 2-deoxyglucose 20, 40 and 100 mM. It counts as cell-based, human.
Source text: as §2

In assay [3] the test system is HEK293 cells (amino acid levels). As to the kind of experiment: Levels of individual amino acids in extracts of insulin-stimulated HEK293 cells. It counts as cell-based, human. To be noted: 100 mM 2-deoxyglucose. On the procedure:
Levels of individual amino acids were measured in extracts prepared from insulin-stimulated HEK293 cells in the presence or absence of amino acids or with 100 mM 2-deoxyglucose treatment and expressed as a percentage of the insulin-stimulated control in the presence of amino acids. Briefly, confluent cultures of HEK293 cells were treated as described above, washed with PBS and drained thoroughly. The cells were then scraped into […] water and sonicated with four 10 sec pulses. Cell debris was removed by centrifugation and sulfosalicylic acid was added to the supernatant to a final concentration of 2%. The samples were then placed on ice for 30 min followed by centrifugation to remove precipitated proteins. The extracts were then analyzed for amino acid content with a Biochrom 20 plus amino acid analyzer (Amersham-Pharmacia Biotech).

Assay [4] addresses T1, mTOR (HA-mTORwt) (Homo sapiens, UniProt P42345).
T1 construct: expressed in transfected cells; host or cells: HEK293 (anti-HA immunoprecipitate)
As to the kind of experiment: In vitro T389 kinase activity of HA-mTORwt immunoprecipitated from treated HEK293 cells. To be noted: cells treated with 100 mM 2-deoxyglucose; assay with 1 mM ATP, 30 min at 30° C. It is filed as cell-based. As for the experimental part: (§3) Briefly, transiently transfected, hemaglutinin-tagged (HA) wild-type mTOR (HA-mTORwt) from HEK293 cells were serum starved for 16 hours before insulin stimulation. The cells were then treated with (or controls without) 100 mM 2-deoxyglucose or subjected to amino acid starvation as described above. Cell extracts were prepared for immunoprecipitations with a monoclonal anti-HA antibody. The immunocomplex was washed once with 1 M NaCl in assay buffer (30 mM MOPS (pH7.5), 5 mM NaF, 20 mM β-glycerol phosphate, 1 mM dithioerythritol, 0.1% Triton X-100 and 10% glycerol) and twice with assay buffer alone. […] Quantitation for Km measurements was carried out using scanning densitometry and ImageQuant software (Molecular Dynamics).

In assay [5] the test system is S6K1 (T389 phosphorylation / activation; reporter for mTOR function). As to the kind of experiment: Insulin-induced S6K1 activation and T389 phosphorylation in HEK293 cells (reporter for mTOR function). To be noted: HEK293, 200 nM insulin, 100 mM 2-deoxyglucose or 20 mM rotenone, 30 min. It counts as cell-based, human. As for the experimental part: Because mTOR is sensitive to amino acids and regulates ribosome biogenesis (Dennis et al., 1999; Gingras et al., 2001; Schmelzle and Hall, 2000), we tested whether its activity may be sensitive to metabolic inhibitors. We used, insulin-induced S6K1 activation and 4E-BP1 phosphorylation as reporters for mTOR function in the presence of glycolytic or mitochohdrial inhibitors to reduce ATP production.
Briefly, human embryonic kidney cells (HEK293) were seeded and maintained as previously described (Pullen et al., Science 279, 707 (1998)). Confluent cells were serum starved for 20 h and then extracted (controls) or treated with 200 nM insulin in the precence or absence of 100 mM 2-deoxyglucose or 20 mM rotenone for 30 min. Cell extraction, kinase assays and Western blot analysis (used to measure S6K1 levels and T389 phosphorylation) were performed as described (Pullen et al.,1998). Phosphospecific antibodies are commercially available (e.g., New England Biolabs).

In a further assay the test system is aminoacylated tRNA. As to the kind of experiment: tRNA aminoacylation in HEK293 cells (acid/urea gel, Northern blot). It is filed as cell-based, human. To be noted: HEK293, insulin stimulation with 2-deoxyglucose. As for the experimental part: Briefly, total RNA was isolated from serum-starved HEK293 cells directly or after insulin stimulation with or without 2-deoxyglucose or amino acid starvation. As a control marker, tRNA was […] by mild alkaline hydrolysis in 0.1 M Tris-HCl (pH 8.0) at 75° C. for 5 min. After resolution on an acid/urea gel (Enriquez et al., in Methods Enzymol., Acad. Press, San Diego, vol. 264, pp. 183.), tRNA was visualized with ethidium bromide staining. Expression levels and phosphorylation state of endogenous S6K1 and 4E-BP1 were also measured from serum-starved cells, stimulated with insulin in the presence or absence of amino acids in the media essentially as described in Example 1.
To further test this finding, selected tRNAs were examined by Northern blot analysis of the tRNA resolved by acid/urea gel electrophoresis as described above. The individual tRNA species were probed after electrotransfer to nylon membrane, with radiolabelled oligonucleotides specific for tRNALeu and tRNAHis, namely: tRNALeu 5′-GCGCCTTAGACCGCTCGGCCACG-3′ (SEQ ID NO:1); tRNAHis 5′-GGTGCCGTGACTCGGATTCGAACCG-3′ (SEQ ID NO:2); and tRNAThr 5′-GCG AGA AAT GM CTC GCG-3′ (SEQ ID NO:3).

The subject of assay [6] is HEK293 cells (intracellular ATP). As to the kind of experiment: Intracellular ATP levels in HEK293 cells, luciferase-based assay. It is filed as cell-based, human. To be noted: for ATP levels compared to insulin stimulated control (100%): Example 4; for ATP levels as a percentage of the insulin-stimulated control (100%): mock-transfected HEK293, insulin-stimulated, treated as in Example 1 (100 mM 2-deoxyglucose or 20 mM rotenone, 30 min). As for the experimental part: Because mTOR is sensitive to glycolitic inhibitors, we wanted to determine whether mTOR is sensitive to alterations in intracellular ATP concentrations. ATP levels were measured from mock-transfected HEK293 cells (using empty vector) treated as in Example 1, using a luciferase-based assay. Retonone and 2-deoxyglucose treatments were carried out on insulin-stimulated cells.
To generate extracts for ATP assays, cells were washed twice with 10 ml ice cold PBS, drained thoroughly, scraped into 1 ml of buffer (100 mM Tris-HCl and 4 mM EDTA pH 7.75) and transferred into an Eppendorf tube before flash freezing in liquid nitrogen. The frozen cells were boiled for 3 min and then placed on ice for 5 min followed by centrifugation at 13,000 rpm for 5 min at 4° C. ATP levels in the extract were measured in a microtiter plate by a Luciferase-based assay (Roche, ATP Bioluminescence Assay Kit CLS II) using a Microlumat LB96P microtiter plate reader (EG&G Berthold). In an illustrative set of experiments and expressing results as a percentage of the insulin-stimulated control (100%), ATP levels increased slightly in insulin treated cells (94% in unstimulated cells), decreased in 2-deoxyglucose treated cells (40-49%) and rotenone-treated cells (75-83%).
as §2

The target in assay [7] is T1, mTOR (HA-mTORwt). As to the kind of experiment: mTOR in vitro kinase activity at varying ATP concentrations (apparent Km for ATP). It counts as biochemical. To be noted: S6K1 T389 phosphorylation, ATP 0.2-3.0 mM. On the procedure: as §3
Next, we measured mTOR activity in vitro at ATP concentrations that approached physiological levels of 1-5 mM In mammalian cells (Gribble et al., 2000, J.Biol.Chem. 275, 30046).

The next assay relates to most protein kinases. To be noted: read-out: Km for ATP of most cellular kinases; cited from earlier work.
The mark [8] stands for this setting: insulin stimulated HEK293 transfected with HA-4E-BP1, Western blot.
Setting [9] is: summary: S6K1 T389 and 4E-BP1 S65 in insulin-stimulated HEK293.

Several values for one entry are separate records, joined by “and”; a condition that tells them apart may be missing. Equal entries are not always repeated. Entries after “also recorded” stand apart in the source; their conditions may differ. Where two headings read alike, the source gives them in different places.

For the molecule `CO[C@H]1C[C@@H]2CC[C@@H](C)[C@@](O)(O2)C(=O)C(=O)N2CCCC[C@H]2C(=O)O[C@H]([C@H](C)C[C@@H]2CC[C@@H](O)[C@H](OC)C2)CC(=O)[C@H](C)/C=C(\C)[C@@H](O)[C@@H](OC)C(=O)[C@H](C)C[C@H](C)/C=C/C=C/C=C/1C` [rapamycin], in the assay on Protein Kinase B (PKB), the “insulin-induced activation of PKB, as judged by S473 phosphorylation and in vitro phosphorylation of H2B” value is recorded as “did not inhibit”.
Turning to `O=C(O)CI` [iodoacetic acid], in assay [1], the “inhibition of 4E-BP1 S65 phosphorylation” value is given as “more efficient than dinitrophenol” and the “inhibition of phosphorylation of mTOR targets (summary of Example 1)” value (“inhibition … (summary of Example 1)” for short) was “able to reduce phosphorylation of mTOR targets to background levels”.
On to `O=CC[C@@H](O)[C@H](O)[C@H](O)CO` [2-deoxyglucose], for which the “TPA-induced MAPK activation, as judged by MBP phosphorylation” value in assay [2] was “no discernable effect”. The “insulin-induced phosphorylation/activation of GST-ΔC-S6K1” value in the assay with GST-ΔC-S6K1 was “unaffected”. Besides, in the assay with Protein Kinase B (PKB), the “insulin-induced activation of PKB, as judged by S473 phosphorylation and in vitro phosphorylation of H2B” value was “did not inhibit”. For the same molecule, in the assay with S6K1-GST, the “insulin-induced phosphorylation/activation of S6K1-GST” value was “reduced insulin-induced activation of S6K1-GST”. In [1] (setting [8]), the “inhibition of 4E-BP1 S65 phosphorylation” value is “inhibit 4EBP-1 S65 phosphorylation to background levels”. In addition, the “inhibition … (summary of Example 1)” value in assay [1] (setting [9]) is “able to reduce phosphorylation of mTOR targets to background levels”. In addition, the “amino acid levels (Ala, Glu, Leu, Ile and Val) as a percentage of the insulin-stimulated control in the presence of amino acids” value in assay [3] is given as 100-120%. Moreover, at mTOR (HA-mTORwt) [4], the “effect on kinase activity of mTOR in vitro towards T389 of S6K1” value is reported as “no effect”. Also, in assay [5], the “inhibition of insulin-induced S6K1 T389 phosphorylation and S6K1 activation (S6 phosphorylation)” value was “reducing phosphorylation/activation to background levels; also recorded: blocked insulin-induced activation of S6K1”. In the assay on aminoacylated tRNA, the “effect on total amounts of aminoacylated tRNA” value was “Neither insulin stimulation nor 2-deoxyglucose treatment had an effect”. Besides, the “ATP levels compared to insulin stimulated control (100%)” value in assay [6] (20 nM 2-deoxyglucose (so in the source)) is 57-59%; in assay [6] (40 nM 2-deoxyglucose (so in the source)), 43-48%; in assay [6] (100 nM 2-deoxyglucose (so in the source)), 32-36%. The “ATP levels as a percentage of the insulin-stimulated control (100%)” value in assay [6] is listed as 40-49%.
Regarding `C=C(C)[C@H]1Cc2c(ccc3c2O[C@@H]2COc4cc(OC)c(OC)cc4[C@@H]2C3=O)O1` [rotenone], the “inhibition of 4E-BP1 S65 phosphorylation” value in assay [1] (setting [8]) is “inhibitory effect”. Besides, the “inhibition … (summary of Example 1)” value in assay [1] (setting [9]) is listed as “able to inhibit phosphorylation of mTOR targets”. In addition, the “inhibition of insulin-induced S6K1 T389 phosphorylation and S6K1 activation (S6 phosphorylation)” value in assay [5] is “inhibitory effect”. Further, in [6], the “ATP levels as a percentage of the insulin-stimulated control (100%)” value is given as 75-83%.
A word on the Km: it is the concentration of substrate that gives half-maximal velocity. Regarding `Nc1ncnc2c1ncn2[C@@H]1O[C@H](COP(=O)(O)OP(=O)(O)OP(=O)(O)O)[C@@H](O)[C@H]1O` [ATP], the Km at mTOR (HA-mTORwt) [7] was ≥ 1000 µM and 1000 µM; in the assay with most protein kinases, 10 to 20 µM.

The values above are taken from patent US20050004068A1, “Modulation of tor” (priority 2001, published 2005).
